Test results taken from patent publication US6512123B2, “Tricyclic alkylhydroxamate derivatives” (Hoffmann-La Roche Inc., priority 2001, dated 2003).

Key:
[1] = tested on: histone deacetylase (HDAC); assay: HDAC inhibition screening assay using an aminocoumarin derivative of an omega-acetylated lysine as substrate; assay type: biochemical; conditions: compound concentration 10 nM
Protocol: To measure the inhibitory properties of the compounds of the invention, a screening assay was performed using an aminocoumarin derivative of an omega-acetylated lysine as substrate for the enzmye. This assay has been described in detail in the literature (Hoffmann, K., et al., Nucleic Acids Res. 27 (1999)2057-2058). Using the protocol described therein, there was measured the inhibitory effect of the compounds at a concentration of 10 nM.

melting point	Inhibitory effect at 10 nM in % [1]	SMILES
192 °C	80%	O=C(CCCCCOc1ccc2c(c1)[nH]c1ccccc12)NO [Example 6, 6-(9H-Carbazol-2-yloxy)-hexanoic Acid Hydroxyamide]
	97%	O=C(CCCCCCCOc1cccc2[nH]c3ccccc3c12)NO [Example 4, 8-(9H-Carbazol-4-yloxy)-octanoic Acid Hydroxyamide]
	62%	O=C(CCCCCCCOc1ccc2c(c1)C(=O)c1ccccc1CO2)NO [Example 1, 8-(11-Oxo-6,1 1-Dihydro-dibenzo[b,e]oxepin-2-yloxy)-octanoic Acid Hydroxyamide]
	86%	O=C(CCCCCCCOc1ccc2c(c1)[nH]c1ccccc12)NO [Example 3, 8-(9H-Carbazol-2-yloxy)-octanoic Acid Hydroxyamide]
	79%	O=C(CCCCCCCOc1ccc2c(c1)C(O)c1ccccc1-2)NO (racemic) [Example 2, rac-8-(9-Hydroxy-9H-fluoren-2-yloxy)-octanoic Acid Hydroxyamide]
	69%	O=C(CCCCOc1ccc2c(c1)[nH]c1ccccc12)NO [Example 7, 5-(9H-Carbazol-2-yloxy)-pentanoic Acid Hydroxyamide]
198 °C	100%	O=C(CCCCCCOc1ccc2c(c1)[nH]c1ccccc12)NO [Example 5, 7-(9H-Carbazol-2-yloxy)-heptanoic Acid Hydroxyamide]
